In patent US20220144815A1, “1,3,4-OXADIAZOLES AND THEIR DERIVATIVES AS NEW ANTIFUNGAL AGENTS” (Bayer Aktiengesellschaft, priority 2018, published 2022) one finds chromatographic logP, pest or weed control and inhibition of growth data, which are given here for eleven compounds.

Like-named read-outs stand apart in the source and are kept apart here.

Data set [1] can be described thus: Log P by HPLC on reversed phase columns, method [a] (EEC directive 79/831 Annex V.A8). The format is physicochemical. As to conditions: reversed phase HPLC column, read-out: logP. The procedure, abridged: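 Reversed-phase HPLC with LC-UV detection per EEC directive 79/831 Annex V.A8, acidic eluent of 0.1% formic acid in water and acetonitrile, linear gradient 10% to 95% acetonitrile. Log P derived from retention times, calibrated against straight-chain alkan-2-ones (C3–C16) by linear interpolation.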

The next data set relates to Alternaria brassicae. As to the kind of experiment: Example E: in vivo preventive test (cabbage). As to conditions: 144 h, 500 ppm of tested compound, preventive spray, evaluated 6 days after inoculation, read-out: efficacy. The protocol: Solvent: 5% by volume of dimethyl sulfoxide • 10% by volume of acetone Emulsifier: 1 μL of Tween® 80 per mg of active ingredient The tested compounds were made soluble and homogenized in a mixture of Dimethyl sulfoxide/Acetone/Tween® 80 and then diluted in water to the desired concentration. The young plants of cabbage were treated by spraying the tested compound prepared as described above. Control plants were treated only with an aqueous solution of Acetone/Dimethyl sulfoxide/Tween® 80. After 24 hours, the plants were contaminated by spraying the leaves with an aqueous suspension of Alternaria brassicae spores. The contaminated cabbage plants were incubated for 6 days at 20° C. and at 100% relative humidity. The test was evaluated 6 days after the inoculation. 0% means an efficacy which corresponds to that of the control plants while an efficacy of 100% means that no disease was observed.

A further data set relates to Phakopsora pachyrhizi. As to the kind of experiment: Example F: in vivo preventive test (soybeans), DMSO/acetone/Tween 80. As to conditions: 288 h, 500 ppm of tested compound, preventive spray, soybean, evaluated 12 days after inoculation, read-out: efficacy. The procedure:
Solvent: 5% by volume of dimethyl sulfoxide • 10% by volume of acetone
Emulsifier: 1 μL of Tween® 80 per mg of active ingredient
The tested compounds were made soluble and homogenized in a mixture of dimethyl sulfoxide/acetone/Tween® 80 and then diluted in water to the desired concentration.
The young plants of wheat were treated by spraying the tested compound prepared as described above. Control plants were treated only with an aqueous solution of acetone/dimethyl sulfoxide/Tween® 80.
After 24 hours, the plants were contaminated by spraying the leaves with an aqueous suspension of Phakospora pachyrhizi spores. The contaminated soybean plants were incubated for 24 hours at 24° C. and at 100% relative humidity and then for 11 days at 24° C. and at 70-80% relative humidity.
The test was evaluated 12 days after the inoculation. 0% means an efficacy which corresponds to that of the control plants while an efficacy of 100% means that no disease was observed.

For data set [2], the system named is Colletotrichum lindemuthianum. As to the kind of experiment: Example B: in vitro cell test, spore germination and mycelium growth in liquid culture. The format is cell-based. As to conditions: 144 h, 20 ppm of tested compound, 6 days incubation, read-out: efficacy (inhibition of fungal growth). The protocol:
• Solvent: dimethyl sulfoxide Culture medium: 14.6 g anhydrous D-glucose (VWR), • 7.1 g mycological peptone (Oxoid), • 1.4 g granulated yeast extract (Merck), QSP 1 liter Inoculum: spore suspension The tested compounds were solubilized in dimethyl sulfoxide and the solution used to prepare the required range of concentrations. The final concentration of dimethyl sulfoxide used in the assay was ≤1%. A spore suspension of Colletotrichum lindemuthianum was prepared and diluted to the desired spore density. The compounds were evaluated for their ability to inhibit spore germination and mycelium growth in liquid culture assay. The compounds were added in the desired concentration to the culture medium with spores. After 6 days incubation, fungi-toxicity of compounds was determined by spectrometric measurement of mycelium growth. Inhibition of fungal growth was determined by comparing the absorbance values in wells containing the tested compounds with the absorbance in control wells without tested compounds.

A further data set relates to Puccinia recondita. In words: Example D: in vivo preventive test (brown rust on wheat). As to conditions: 264 h, 500 ppm of tested compound, preventive spray, evaluated 11 days after inoculation, read-out: efficacy. The protocol:
Solvent: 5% by volume of dimethyl sulfoxide • 10% by volume of acetone Emulsifier: 1 μL of Tween® 80 per mg of active ingredient The tested compounds were made soluble and homogenized in a mixture of dimethyl sulfoxide/acetone/Tween® 80 and then diluted in water to the desired concentration. The young plants of wheat were treated by spraying the tested compound prepared as described above. Control plants were treated only with an aqueous solution of acetone/dimethyl sulfoxide/Tween® 80. After 24 hours, the plants were contaminated by spraying the leaves with an aqueous suspension of Puccinia recondita spores. The contaminated wheat plants were incubated for 24 hours at 20° C. and at 100% relative humidity and then for 10 days at 20° C. and at 70-80% relative humidity. The test was evaluated 11 days after the inoculation. 0% means an efficacy which corresponds to that of the control plants while an efficacy of 100% means that no disease was observed.

[3] abbreviates: log P determined according to method [a] (HPLC on reversed phase columns).
Setting [4] is: method [a], HPLC on reversed phase columns.

Consider `ON(Cc1ccccc1)c1ncc(-c2nnc(C(F)F)o2)cn1` [I.110, N-benzyl-5-[5-(difluoromethyl)-1,3,4-oxadiazol-2-yl]-N-hydroxypyrimidin-2-amine], for which the chromatographic logP in data set [1] (setting [3]) came out at 2.23. Moreover, the pest or weed control at 500 µg/mL in the data set with Alternaria brassicae and in the data set on Phakopsora pachyrhizi was 90 to 100% in each case. The inhibition of growth at 20 µg/mL in data set [2] was in the range of 90 to 100%.

For the compound `CC(Oc1ncc(-c2nnc(C(F)F)o2)cn1)c1ccc(F)cc1` (racemic) [I.127, 5-[5-(difluoromethyl)-1,3,4-oxadiazol-2-yl]-2-{[(1RS)-1-(4-fluorophenyl)ethyl]oxy}pyrimidine], the chromatographic logP in data set [1] (setting [3]) came out at 3.13. Moreover, the pest or weed control at 500 µg/mL in the data set with Puccinia recondita was in the range of 70 to 79%; in the data set on Phakopsora pachyrhizi it was 90 to 100%.

Regarding `CN(Nc1ncc(-c2nnc(C(F)F)o2)cn1)c1ccccc1` [I.108, 5-[5-(difluoromethyl)-1,3,4-oxadiazol-2-yl]-2-(2-methyl-2-phenylhydrazino)pyrimidine], the chromatographic logP in data set [1] (setting [3]) amounted to 2.23. Moreover, in the data set with Puccinia recondita, the pest or weed control at 500 µg/mL lay in the range of 70 to 79%.

Consider `CON(c1ncc(-c2nnc(C(F)F)o2)cn1)C(C)c1ccccc1` (racemic) [I.147, N-{5-[5-(difluoromethyl)-1,3,4-oxadiazol-2-yl]pyrimidin-2-yl}-O-methyl-N-[(1RS)-1-phenylethyl]hydroxylamine], for which the chromatographic logP in data set [1] (setting [3]) is 3.37. Further, the pest or weed control at 500 µg/mL fell in the range of 90 to 100% with Alternaria brassicae and 80 to 89% in the data set with Phakopsora pachyrhizi.

As for `Fc1ccccc1Nc1ncc(-c2nnc(C(F)F)o2)cn1` [I.093, 5-[5-(difluoromethyl)-1,3,4-oxadiazol-2-yl]-N-(2-fluorophenyl)pyrimidin-2-amine], the pest or weed control at 500 µg/mL in the data set on Puccinia recondita and in the data set with Phakopsora pachyrhizi was 90 to 100% throughout.

With `CN(C(=O)c1ccc(-c2nnc(C(F)(F)F)o2)cc1)c1ccccc1` [I.026, N-methyl-N-phenyl-4-[5-(trifluoromethyl)-1,3,4-oxadiazol-2-yl]benzamide], the pest or weed control at 500 µg/mL in the data set with Puccinia recondita lay in the range of 80 to 89%.

Turning to `FC(F)c1nnc(-c2cnc(NC3(c4ccccn4)CC3)nc2)o1` [I.121, 5-[5-(difluoromethyl)-1,3,4-oxadiazol-2-yl]-N-[1-(pyridin-2-yl)cyclopropyl]pyrimidin-2-amine], in data set [1] (setting [3]), the chromatographic logP stood at 0.93. The pest or weed control at 500 µg/mL is 70 to 79% in the data set with Puccinia recondita and 90 to 100% in the data set with Phakopsora pachyrhizi.

Consider `Fc1cccc(C2(Nc3ncc(-c4nnc(C(F)F)o4)cn3)CCCC2)c1` [I.172, 5-[5-(difluoromethyl)-1,3,4-oxadiazol-2-yl]-N-[1-(3-fluorophenyl)cyclopentyl]pyrimidin-2-amine], for which the chromatographic logP in data set [1] (setting [4]) was found to be 3.6. Besides, the pest or weed control at 500 µg/mL in the data set with Alternaria brassicae was in the range of 80 to 89%. For the same compound, the inhibition of growth at 20 µg/mL in data set [2] lay in the range of 70 to 79%.

Turning to `Fc1ccccc1C1(Nc2ncc(-c3nnc(C(F)F)o3)cn2)CCCC1` [I.171, 5-[5-(difluoromethyl)-1,3,4-oxadiazol-2-yl]-N-[1-(2-fluorophenyl)cyclopentyl]pyrimidin-2-amine], the chromatographic logP in data set [1] (setting [4]) came to 3.74. Besides, the results for the pest or weed control at 500 µg/mL in the data set on Alternaria brassicae and with Phakopsora pachyrhizi were 80 to 89% and 70 to 79%, respectively. Further, in data set [2], the inhibition of growth at 20 µg/mL lay within 70 to 79%.

For `COc1ccccc1C1(Nc2ncc(-c3nnc(C(F)F)o3)cn2)CC1` [I.155, 5-[5-(difluoromethyl)-1,3,4-oxadiazol-2-yl]-N-[1-(2-methoxyphenyl)cyclopropyl]pyrimidin-2-amine], the chromatographic logP in data set [1] (setting [3]) turned out to be 3.06. Also, the pest or weed control at 500 µg/mL lay within 80 to 89% in the data set with Puccinia recondita and 90 to 100% with Phakopsora pachyrhizi.

Consider `COC(=O)c1ccc(C2(Nc3ncc(-c4nnc(C(F)F)o4)cn3)CC2)cc1` [I.180, methyl 4-[1-({5-[5-(difluoromethyl)-1,3,4-oxadiazol-2-yl]pyrimidin-2-yl}amino)cyclopropyl]benzoate], for which the chromatographic logP in data set [1] (setting [4]) came out at 2.51. Moreover, in the data set on Puccinia recondita, the pest or weed control at 500 µg/mL fell in the range of 70 to 79%.

The inhibition of growth is the change of the read-out against control, counted positive when it falls.
